For this assay, the system named is prenyl-protein transferases. The assay is described as follows: the disclosed assays (not specified which).

For `Cc1cccc(Oc2cc(Cn3c(CN4CCN(C(=O)OC(C)(C)C)CC4)cnc3C)ccc2C#N)n1` [Example 1 Step G, 1-(tert-butoxycarbonyl)-4-[1-(3-((6-methyl-2-pyridyl)oxy)-4-cyanobenzyl)-2-methyl-5-imidazolylmethyl]piperazine], the “activity in the disclosed assays” value is reported as “active”.

Values taken from patent publication US20020052363A1, “Inhibitors of prenyl-protein transferase” (priority 2000, published 2002).
